Measured values reported in patent US6130248A, “Tricarboxylic acid-containing oxyalkyl esters and uses thereof” (Bar-ILAn University, priority 1996, dated 2000).

Key:
neoplastic cells = conditions: in vitro; cited from earlier work
cancer = cancer patients; cited from earlier work
[1] = system: c-myc in HL-60 promyelocytic leukemia; conditions: cited from earlier work
IMR-32 (Neuroblastoma) = assay: Clonogenicity of established tumor cell lines (soft agar); type: cell-based, human
Protocol: (§1) Inhibition of tumor growth was tested using cell lines as follows: […]

K562 (Erytholeukemia) = assay: as above; type: cell-based, human
Protocol: as §1

LA1-5S (Neuroblastoma) = assay: as above; type: cell-based, human
Protocol: as §1

[2] = system: LNCaP (Prostate Carcinoma); assay: as above; type: cell-based, human
Protocol: as §1

[3] = system: MCF7-40F (Breast Carcinoma); assay: as above; type: cell-based, human
Protocol: as §1

[4] = system: MCF7-WT (Breast Carcinoma); assay: as above; type: cell-based, human
Protocol: as §1

NBAS-5 (Neuroblastoma) = assay: as above; type: cell-based, human
Protocol: as §1

NBL-W-N (Neuroblastoma) = assay: as above; type: cell-based, human
Protocol: as §1

PC3 (Prostate Carcinoma) = assay: as above; type: cell-based, human
Protocol: as §1

SK-N-MC (Neuroblastoma) = assay: as above; type: cell-based, human
Protocol: as §1

SK-N-SH (Neuroblastoma) = assay: as above; type: cell-based, human
Protocol: as §1

SMS-KAN (Neuroblastoma) = assay: as above; type: cell-based, human
Protocol: as §1

[5] = system: 53 primary tumor cell lines; assay: Inhibition of clonogenicity of primary tumor cells; type: cell-based, human
Excerpt: The tested tumor cells were from 11 non-small cell lung carcinomas, 10 breast carcinomas, 10 gastric carcinomas, 10 ovarian carcinomas, and 10 CNS tumors.

[6] = system: established tumor cell lines; assay: Clonogenicity of established tumor cell lines, all lines together; type: cell-based, human; conditions: all cell lines
Protocol: as §1

[7] = system: P3HR-1 EBV-positive lymphoma cells; assay: [3H]-thymidine incorporation in EBV-positive lymphoma cells; type: cell-based, human; conditions: 72 hours
Protocol: The effect of GOMB to AB was compared on EBV virus-associated tumors. EBV-positive cells from P3HR-1, a human lymphoma cell line, were incubated in growth medium with the specified concentration of GOMB, AB, ganciclovir (GC), or combination of these, for 72 hours, seeded in 96-well plates and pulsed with 1 μCi [^3 H]-thymidine/well during the last 16 hours of exposure to the compounds. Cells were harvested with a cell harvester, using glass microfiber filters. The incorporation of [^3 H]-thymidine was determined by retention of the acid insoluble fraction on filters and is expressed as CPM.

[8] = system: Au565 breast carcinoma cells; assay: Differentiation by lipid staining; type: cell-based, human; conditions: 10 μM
Excerpt: Lipid staining and/or immunochemical staining of casein can be used as a marker for cellular differentiation of breast cancer cells (Bacus et al., Md. Carcin. 3:350-362, 1990). Casein detection can be done by histochemical staining of breast cancer cells using a human antibody to human casein as described by Cheung et al., J. Clin. Invest. 75:1722-1728,which is incorporated by reference in its entirety.
In the case of the human breast carcinoma cell line Au565, 100%. Of the cells treated with 10 μM GOMB were positive for lipid staining whereas less than 1% of cells treated with the same concentration of AB were positive for lipid staining.

CFPAC cells = assay: SRB cell proliferation assay; type: cell-based
Protocol: (§2) The inhibition of cell proliferation was measured in the indicated cancer cell lines using the sulforhoamine B (SRB) assay as described by Monks et al., J. Natl. Can. Inst. […] The SRB assay is used to screen for anti-cancer drugs.

HL-60 cells [9] = assay: SRB cell proliferation assay; type: cell-based; conditions: Homo sapiens; HL-60, SRB
Protocol: as §2

HT-29 cells = assay: SRB cell proliferation assay; type: cell-based; conditions: Homo sapiens; HT-29, SRB
Protocol: as §2

MCF7 cells = assay: SRB cell proliferation assay; type: cell-based; conditions: Homo sapiens
Protocol: as §2

[10] = system: cancer cell lines (CFPAC, HL-60, HT-29, MCF7); assay: SRB cell proliferation assay, all cell lines together; type: cell-based
Protocol: as §2

HL-60 cells [11] = assay: Induction of apoptosis (propidium iodide, flow cytometry); type: cell-based, human; conditions: 3 days
Protocol: (§3) Apoptosis was measured as described by Telford et al., 1991, Cell Physiol. 24:447-459, in HL-60 cells and in the human erthroblastic cell line, K-562. Cells were treated with COMB for 3 days, fixed, stained with propidium iodine and analyzed by flow cytometrly for cell cycle distribution. […] This region consisted of cells with fragmented DNA.

K-562 cells = assay: as above; type: cell-based, human; conditions: 3 days
Protocol: as §3

MCF-7 cells (WAF) = assay: Apoptosis in breast cancer cells, staining with WAF antibody / Western blot; type: cell-based, human
Protocol: Induction of apoptosis by COMB and AB in MCF-7 cells was evaluated by staining cells with the WAF antibody and by Western blot analysis as described by Bacus et al., 1996, Oncogene 12:2535-2547.

K562 cells (HbF) [12] = assay: Hb-containing K562 cells by benzidine staining; type: cell-based, human; conditions: 5 days
Protocol: (§4) Hb Measurement: HB was measured by benzidine staining of K562 cells after 5 days exposure to GOMB or AB according to the procedure of Fibach et al. (1989) [full cite]. Quantitative measurement of HbF in K562 culture or human erythroid cultures was determined by ion-exchange high pressure liquid chromatography (HPLC) as described by Fibach et al., Blood 81:1630-1635, 1993.
(§5) K562 cells: K562 is an erthroblast cell line that develops some properties of erythroid, megakaryocyte or monocyte cells, depending on the specific stimulus, when induced by different chemicals. K562 cells were grown in RPMI with 10% FCS, supplemented with 2 mM glutamine. Cells were incubated at 37° C. in a humidified, 5% CO2 incubator.

K562 cells (HbF) [13] = assay: HbF synthesis in K562 cells (ion-exchange HPLC); type: cell-based, human
Protocol: as §5

[14] = system: erythroid cells from peripheral blood (HbF); assay: HbF in cultured erythroid cells; type: cell-based; conditions: Homo sapiens; 0.2 mM, relative to untreated control cultures; read-out: increase of HbF in cultured erythroid cells
Protocol: as §4
Erythroid cells: Erythroid cells were isolated from peripheral blood of healthy individuals by the method of Fibach (1993).

[15] = system: colon carcinoma, leukemia and retinoblastoma cell lines; conditions: in vitro; cited from earlier work
[16] = Homo sapiens, IMR-32 clonogenicity
[17] = Homo sapiens, K562 clonogenicity
[18] = Homo sapiens, LA1-5S clonogenicity
[19] = Homo sapiens, LNCaP clonogenicity
[20] = Homo sapiens, MCF7-40F clonogenicity
[21] = Homo sapiens, MCF7-WT clonogenicity
[22] = Homo sapiens, NBAS-5 clonogenicity
[23] = Homo sapiens, NBL-W-N clonogenicity
[24] = Homo sapiens, PC3 clonogenicity
[25] = Homo sapiens, SK-N-MC clonogenicity
[26] = Homo sapiens, SK-N-SH clonogenicity
[27] = Homo sapiens, SMS-KAN clonogenicity

CCCC(=O)O [BA, Butyric acid]
differentiating and antiproliferative activity (neoplastic cells): potent differentiating and antiproliferative agent in a wide spectra of neoplastic cells | clinical antitumor efficacy (cancer): minimal or transient efficacy | expression of c-myc [1]: decrease in the expression

CCCC(=O)OCOC(=O)CCCC(=O)O [GOMB, mono-(butyroyloxymethyl)glutarate]
IC50 (IMR-32 (Neuroblastoma); [16]): 23 µM | IC90 (IMR-32 (Neuroblastoma); [16]): 41 µM | AB/GOMB IC50 Ratio (IMR-32 (Neuroblastoma); IMR-32): 38 | AB/GOMB IC90 Ratio (IMR-32 (Neuroblastoma); IMR-32): 87 | IC50 (K562 (Erytholeukemia); [17]): 43.3 µM | IC90 (K562 (Erytholeukemia); [17]): 97 µM | AB/GOMB IC50 Ratio (K562 (Erytholeukemia); K562): 17.8 | AB/GOMB IC90 Ratio (K562 (Erytholeukemia); K562): 68.6 | IC50 (LA1-5S (Neuroblastoma); [18]): 39 µM | IC90 (LA1-5S (Neuroblastoma); [18]): 59 µM | AB/GOMB IC50 Ratio (LA1-5S (Neuroblastoma); LA1-5S): 42 | AB/GOMB IC90 Ratio (LA1-5S (Neuroblastoma); LA1-5S): 45 | IC50 [2, 19]: 68.1 µM | IC90 [2, 19]: 107 µM | AB/GOMB IC50 Ratio ([2]; LNCaP): 11.4 | AB/GOMB IC90 Ratio ([2]; LNCaP): 63 | IC50 [3, 20]: 65.9 µM | IC90 [3, 20]: 85.3 µM | AB/GOMB IC50 Ratio ([3]; MCF7-40F): 12.4 | AB/GOMB IC90 Ratio ([3]; MCF7-40F): 37.3 | IC50 [4, 21]: 43.5 µM | IC90 [4, 21]: 97 µM | AB/GOMB IC50 Ratio ([4]; MCF7-WT): 34.5 | AB/GOMB IC90 Ratio ([4]; MCF7-WT): 97.7 | IC50 (NBAS-5 (Neuroblastoma); [22]): 16 µM | IC90 (NBAS-5 (Neuroblastoma); [22]): 38 µM | AB/GOMB IC50 Ratio (NBAS-5 (Neuroblastoma); NBAS-5): 23.2 | AB/GOMB IC90 Ratio (NBAS-5 (Neuroblastoma); NBAS-5): 343 | IC50 (NBL-W-N (Neuroblastoma); [23]): 25 µM | IC90 (NBL-W-N (Neuroblastoma); [23]): 70 µM | AB/GOMB IC50 Ratio (NBL-W-N (Neuroblastoma); NBL-W-N): 19.6 | AB/GOMB IC90 Ratio (NBL-W-N (Neuroblastoma); NBL-W-N): 44 | IC50 (PC3 (Prostate Carcinoma); [24]): 34.9 µM | IC90 (PC3 (Prostate Carcinoma); [24]): 96.1 µM | AB/GOMB IC50 Ratio (PC3 (Prostate Carcinoma); PC3): 6.48 | AB/GOMB IC90 Ratio (PC3 (Prostate Carcinoma); PC3): 46.6 | IC50 (SK-N-MC (Neuroblastoma); [25]): 16 µM | IC90 (SK-N-MC (Neuroblastoma); [25]): 35 µM | AB/GOMB IC50 Ratio (SK-N-MC (Neuroblastoma); SK-N-MC): 13.4 | AB/GOMB IC90 Ratio (SK-N-MC (Neuroblastoma); SK-N-MC): 37.5 | IC50 (SK-N-SH (Neuroblastoma); [26]): 28 µM | IC90 (SK-N-SH (Neuroblastoma); [26]): 95 µM | AB/GOMB IC50 Ratio (SK-N-SH (Neuroblastoma); SK-N-SH): 35.6 | AB/GOMB IC90 Ratio (SK-N-SH (Neuroblastoma); SK-N-SH): 37.8 | IC50 (SMS-KAN (Neuroblastoma); [27]): 27 µM | IC90 (SMS-KAN (Neuroblastoma); [27]): 80 µM | AB/GOMB IC50 Ratio (SMS-KAN (Neuroblastoma); SMS-KAN): 42 | AB/GOMB IC90 Ratio (SMS-KAN (Neuroblastoma); SMS-KAN): 26 | IC50 ([5]; Homo sapiens): 34 µM | IC90 ([5]; Homo sapiens): 78 µM | AB/GOMB IC50 Ratio ([5]; average): 13.9 | AB/GOMB IC90 Ratio ([5]; average): 27.3 | ratio of IC50 AB:IC50 GOMB, median [6]: 28.5 | ratio of IC90 AB:IC90 GOMB, median [6]: 53 | ratio of IC90 AB:IC90 GOMB, range [6]: 26-342 fold | potency relative to AB in inhibiting EBV-positive lymphoma cells [7]: 10 fold | cells positive for lipid staining [8]: 100% | IC50 (CFPAC cells): 32.5 µM | IC90 (CFPAC cells): 41 µM | IC50 (HL-60 cells [9]): 24.5 µM | IC90 (HL-60 cells [9]): 53.6 µM | IC50 (HT-29 cells): 98.2 µM | IC90 (HT-29 cells): 123 µM | IC50 (MCF7 cells): 109 µM | IC90 (MCF7 cells): 218 µM | activity relative to AB by IC50 and IC90 values [10]: at least 100 fold | % apoptotic cells HL-60 (HL-60 cells [11]; 5.0 μM): 9.4% | % apoptotic cells HL-60 (HL-60 cells [11]; 12.5 μM): 14.9% | % apoptotic cells HL-60 (HL-60 cells [11]; 25.0 μM): 15.8% | % apoptotic cells HL-60 (HL-60 cells [11]; 37.5 μM): 36.3% | % apoptotic cells K-562 (K-562 cells; 12.5 μM): 9% | % apoptotic cells K-562 (K-562 cells; 25.0 μM): 18% | % Cells Expressing WAF (MCF-7 cells (WAF); 10 μM): 36% | % Cells Expressing WAF (MCF-7 cells (WAF); 25 μM): 34% | % Cells Expressing WAF (MCF-7 cells (WAF); 50 μM): 79% | % Cells Expressing WAF (MCF-7 cells (WAF); 100 μM): 81% | increase in percentage of cells expressing WAF (MCF-7 cells (WAF); versus 13% in the controls): 623% | concentration inducing apoptosis, lower than AB (MCF-7 cells (WAF); versus AB): 10 fold | Percentage K562 Cells Containing HbF (K562 cells (HbF) [12]; 0.01 mM): 6.3 ± 1.15% | Percentage K562 Cells Containing HbF (K562 cells (HbF) [12]; 0.05 mM): 12.3 ± 5.3% | Percentage K562 Cells Containing HbF (K562 cells (HbF) [12]; 0.10 mM): 29% | HbF Synthesis in K562 Cells (K562 cells (HbF) [13]; 0.01 mM): 1.54 µg/mL | HbF Synthesis in K562 Cells (K562 cells (HbF) [13]; 0.05 mM): 3.21 µg/mL | HbF Synthesis in K562 Cells (K562 cells (HbF) [13]; 0.10 mM): 5.0 µg/mL | activation at 200 µM [14]: 49.5%

CCCC(=O)[O-].[Na+] [SB, sodium butyrate]
apoptosis [15]: produce apoptosis
